For one compound, Activity results are on record in ChEMBL document CHEMBL1667780, “Identification of a novel small molecule targeting UQCRB of mitochondrial complex III and its anti-angiogenic activity” (Bioorg Med Chem Lett, 2011).

Each structure is given as a SMILES string. Active and inactive are the calls of the source. The rule behind the calls is not given here.

The target in test [1] is T1, Cytochrome b-c1 complex subunit 7 (Homo sapiens) (UniProt P14927).
T1 sequence (whole entry): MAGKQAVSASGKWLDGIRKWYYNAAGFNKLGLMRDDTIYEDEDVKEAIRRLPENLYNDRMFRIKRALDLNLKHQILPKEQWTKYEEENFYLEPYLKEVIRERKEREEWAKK
As to the kind of experiment: Binding affinity to UQCRB in HUVEC at 30 uM after 24 hrs by ter-caumarin competitive binding assay. The test is classed as cell-based.

Test [2] addresses T1, Cytochrome b-c1 complex subunit 7 (Homo sapiens). Description: Binding affinity to human UQCRB at 25 uM by surface plasmon resonance assay.

With `C/C1=C\C[C@]2(C)C(=O)C(O)=C([C@H](C)CO)[C@H]2C/C=C(\C)[C@@H](O)CC/C(C)=C/CC1`, the result in test [1] and in test [2] was Active.
